Like-named read-outs stand apart in the source and are kept apart here.
Test system: erythrocytes infected with 3D7 trophozoites
Type: cell-based, Plasmodium falciparum

## COc1ccc2c(c1)OC(O)(C(F)(F)C(F)(F)F)CC2=O (centres unmarked) [MMV007839]
3hr
  NADP+, Average: -0.3346
  Ornithine, Average: -0.1015
  Orotate, Average: -1.466
  Orotidine 5-Phosphate, Average: -1.489
  Orotidine, Average: -1.057
  PAEF, Average: -1.307
  PD, Average: 0.2119
  PDAV, Average: 0.3685
  PE, Average: 0.9141
  PEE, Average: -0.2135
  PHF, Average: 0.05129
  PPVQ, Average: -0.3492
  PVNF, Average: -0.8559
  PVQ, Average: 0.3164
  PVQA, Average: -1.408
  Pantothenate, Average: -0.2954
  Phenylalanine, Average: -0.1326
  Phosphoenolpyruvate, Average: 0.2604
  Pipecolate, Average: 0.1041
  Proline, Average: -0.09895
  Pyridoxine, Average: -0.07403
  Pyruvate, Average: 1.858
  Ribose-5-Phosphate, Average: 0.8813
  S-Adenosyl-L-homocysteine, Average: -0.314
  SDGLA, Average: -0.3844
  SFGD, Average: -0.2955
  Sedoheptulose-1/7-Phosphate, Average: 0.2199
  Serine, Average: 0.166
  Succinate Semialdehyde, Average: -0.7119
  Succinate, Average: -0.2462
  TNVK, Average: -1.745
  Threonine, Average: 0.01502
  Tryptophan, Average: -0.2359
  Tyrosine, Average: -0.01653
  UDP, Average: -0.7159
  UDP-N-acetyl-D-glucosamine, Average: 0.05247
  UDP-glucose, Average: -0.07837
  UMP, Average: -0.2624
  Uracil, Average: -0.6081
  Valine, Average: -0.194
  Xanthine, Average: -0.464
  dADP, Average: -1.193
  dATP, Average: -0.03116
  dCDP, Average: 0.3315
  dGMP, Average: 0.1661
  dTMP, Average: 0.1316
  dTTP, Average: -0.08156
  dUMP, Average: 1.365
  myo-Inositol, Average: -0.258
  sn-Glycerol 3-Phosphate, Average: 1.559
  sn-glycero-3-Phospho-1-inositol, Average: 0.1698
6hr
  1-3 (2-3)-Bisphopshateglycerate, Average: 0.3636
  2-Hydroxyglutarate, Average: -0.3824
  2-Ketoglutarate, Average: -0.4713
  3-Phoshoglycerate, Average: 0.02516
  3-Phospho-serine, Average: -0.6364
  4-Aminobutanoate, Average: 1.092
  5-Phosphoribosyl-Pyrophosphate, Average: 0.556
  6-Phosphogluconate, Average: -0.3794
  ADP, Average: -0.3027
  AMP, Average: -0.04039
  ATLS, Average: -0.1601
  ATP, Average: -0.3608
  Acetyl-CoA, Average: -0.9886
  Acetyl-L-alanine, Average: -0.3969
  Adenine, Average: -0.7079
  Arginine, Average: 0.2024
  Asparagine, Average: 0.205
  Aspartate, Average: -0.08675
  CDP, Average: -0.2824
  CDP-ethanolamine, Average: -0.09908
  CMP, Average: 0.2839
  CTP, Average: -0.5655
  Cholesteryl sulfate, Average: -0.1903
  Citrate, Average: -0.1627
  CoA, Average: -0.6499
  Cyclic AMP, Average: -1.349
  Cytidine, Average: 0.1751
  DALT, Average: 0.7209
  DEVG, Average: -0.06216
  DGLA, Average: 0.8365
  DLS, Average: -0.1236
  Deoxycytidine, Average: 1.626
  Dihydroorotate, Average: -1.004
  ESFG, Average: 0.5044
  EVGG, Average: -0.2203
  Erythrose 4-Phosphate, Average: -0.7036
  FAD, Average: -0.616
  FMN, Average: -0.6137
  Farnesyl diphosphate, Average: -0.2783
  Folate, Average: -0.4942
  Fructose-1-6-Bisphosphate, Average: 0.3974
  Fructose-6-Phosphate, Average: -0.1081
  GDP, Average: -0.8963
  GDP-mannose, Average: -1.076
  GMP, Average: -0.8795
  GTP, Average: -0.6956
  Geranylgeranyl pyrophosphate, Average: -0.7121
  Glucono-1-4-Lactone, Average: 2.219
  Glucose-6-Phosphate, Average: -0.5083
  Glutamate, Average: -0.02563
  Glutamine, Average: 1.089
  Glutathione Disulfide, Average: -0.1925
  Glutathione, Average: -0.4326
  Glyceraldehyde 3-Phosphate, Average: -1.148
  Glycerone Phosphate, Average: -0.3794
  HLD, Average: 0.5581
  HVDD, Average: 0.02571
  Histidine, Average: 1.263
  Homoserine, Average: 0.6347
  Hydroxy-L-proline, Average: -0.1227
  Hypoxanthine, Average: 0.2056
  IDP, Average: 0.2522
  IMP, Average: -0.2109
  Inosine, Average: 0.5174
  Isoleucine, Average: 0.1143
  LD, Average: 0.1248
  Lactate, Average: 2.505
  Leucine, Average: 0.06585
  Lysine, Average: 1.1316
  Malate, Average: -0.236
  Mannitol, Average: -0.1109
  Methionine, Average: -0.2224
  Myristic acid, Average: -0.7184
  N-Acetyl-glutamate, Average: -1.091
  N-Carbamoyl-L-Aspartate, Average: -1.386
  NAD+, Average: 0.1336
  NADH, Average: -2.783
  NADP+, Average: -0.3285
  Ornithine, Average: -0.4177
  Orotate, Average: -1.6355
  Orotidine 5-Phosphate, Average: -1.249
  Orotidine, Average: -0.6749
  PAEF, Average: 0.8061
  PD, Average: 1.197
  PDAV, Average: 1.2
  PE, Average: 1.699
  PEE, Average: 1.042
  PHF, Average: 0.9826
  PPVQ, Average: -0.2514
  PVNF, Average: 0.6194
  PVQ, Average: 1.502
  PVQA, Average: -0.1116
  Pantothenate, Average: -0.4384
  Phenylalanine, Average: 0.1437
  Phosphoenolpyruvate, Average: 0.09862
  Pipecolate, Average: 1.035
  Proline, Average: 0.2232
  Pyridoxine, Average: 0.219
  Pyruvate, Average: 2.1785
  Ribose-5-Phosphate, Average: 0.5462
  S-Adenosyl-L-homocysteine, Average: -0.1116
  SDGLA, Average: -0.7918
  SFGD, Average: -0.1482
  Sedoheptulose-1/7-Phosphate, Average: 0.1885
  Serine, Average: 0.02139
  Succinate Semialdehyde, Average: -0.438
  Succinate, Average: 0.1816
  TNVK, Average: -0.1213
  Threonine, Average: 0.6908
  Tryptophan, Average: -0.04867
  Tyrosine, Average: 0.1841
  UDP, Average: -0.5016
  UDP-N-acetyl-D-glucosamine, Average: -0.184
  UDP-glucose, Average: 0.0071
  UMP, Average: -0.08541
  Uracil, Average: -0.6376
  Valine, Average: 0.1675
  Xanthine, Average: -0.5471
  dADP, Average: -0.4329
  dATP, Average: 0.01926
  dCDP, Average: 0.5589
  dGMP, Average: -0.355
  dTMP, Average: 0.4667
  dTTP, Average: 0.06317
  dUMP, Average: 1.053
  myo-Inositol, Average: -0.254
  sn-Glycerol 3-Phosphate, Average: 1.275
  sn-glycero-3-Phospho-1-inositol, Average: 0.1242
Av 1hr, 6 μM
  1-3 (2-3)-diphopshateglycerate log2 ratio (+MMV007839/-MMV007839): 0.8283
  2-Hydroxyglutarate log2 ratio (+MMV007839/-MMV007839): -0.2432
  2-Ketoglutarate log2 ratio (+MMV007839/-MMV007839): -0.436
  3-Phosho-D-glycerate log2 ratio (+MMV007839/-MMV007839): 0.004248
  3-Phospho-serine log2 ratio (+MMV007839/-MMV007839): -0.2778
  4-Aminobutanoate log2 ratio (+MMV007839/-MMV007839): 1.193
  5-Phosphoribosyl-1-pyrophosphate log2 ratio (+MMV007839/-MMV007839): 0.3507
  ADP log2 ratio (+MMV007839/-MMV007839): -0.09347
  AMP log2 ratio (+MMV007839/-MMV007839): 0.1805
  ATLS log2 ratio (+MMV007839/-MMV007839): 0.06136
  ATP log2 ratio (+MMV007839/-MMV007839): -0.05715
  Acetyl-CoA log2 ratio (+MMV007839/-MMV007839): -0.4647
  Acetyl-L-alanine log2 ratio (+MMV007839/-MMV007839): 0.1907
  Adenine log2 ratio (+MMV007839/-MMV007839): -0.6208
  Arginine log2 ratio (+MMV007839/-MMV007839): 0.574
  Asparagine log2 ratio (+MMV007839/-MMV007839): 0.04802
  Aspartic Acid log2 ratio (+MMV007839/-MMV007839): 0.001665
  CDP log2 ratio (+MMV007839/-MMV007839): -0.01089
  CDP-ethanolamine log2 ratio (+MMV007839/-MMV007839): 0.2765
  CMP log2 ratio (+MMV007839/-MMV007839): 0.1684
  CTP log2 ratio (+MMV007839/-MMV007839): -0.2804
  Cholesteryl sulfate log2 ratio (+MMV007839/-MMV007839): -0.2972
  Citrate log2 ratio (+MMV007839/-MMV007839): -0.1229
  CoA log2 ratio (+MMV007839/-MMV007839): -0.4384
  Cyclic AMP log2 ratio (+MMV007839/-MMV007839): -0.8135
  Cytidine log2 ratio (+MMV007839/-MMV007839): -0.7749
  D-Glucono-1-4-lactone log2 ratio (+MMV007839/-MMV007839): 1.593
  DALT log2 ratio (+MMV007839/-MMV007839): -0.5028
  DEVG log2 ratio (+MMV007839/-MMV007839): 0.001555
  DGLA log2 ratio (+MMV007839/-MMV007839): -0.4525
  DLS log2 ratio (+MMV007839/-MMV007839): -0.423
  Deoxycytidine log2 ratio (+MMV007839/-MMV007839): 1.92
  Dihydroorotate log2 ratio (+MMV007839/-MMV007839): -0.5278
